Values of other authors, collected in paper PMC12125103 (Naunyn-Schmiedeberg's Archives of Pharmacology, 2024).

etelcalcetide [Parsabiv]
maximum single dose in healthy humans for safe tolerance: 10 mg
